We go through six compounds from ChEMBL document CHEMBL1201862, “PubChem BioAssay data set” (2004).

Structures are written as SMILES. Active and inactive are the calls of the source.

By IC50 is commonly meant the midpoint of a concentration-inhibition curve. The EC50 is the concentration at which the effect is half-maximal. As a reminder, the AC50 is the midpoint of the concentration-response curve, whichever way the signal moves.

For test [1], the system named is HEK293. The test can be described thus: NOD2 signaling inhibitors in MDP-stimulated cells, cell-based, uHTS, luminescence (AID 2001). The class given is functional. As to conditions: Homo sapiens.
For test [2], the system named is HEK293. The test can be described thus: cells. The class given is functional, cell-based. The note with it: Homo sapiens.
Test [3] concerns HEK293. Nature of the test: inhibition of NOD1-driven NF-kB reporter – cell-based, luminescence, uHTS, primary screen (AID 1578). As to conditions: Homo sapiens. The class given is functional.
Test [4] has as its system HEK293. Nature of the test: cells. The class given is functional, cell-based. The note with it: Homo sapiens. The source holds these as a separate data set.
The target in test [5] is Nucleotide-binding oligomerization domain-containing protein 2 (Homo sapiens, UniProt Q9HC29). Nature of the test: inhibition of NOD2-driven NF-kB reporter – cell-based, luminescence, uHTS, HEK293 (AID 1566). Format: functional.
Sequence of Nucleotide-binding oligomerization domain-containing protein 2 (Q9HC29 whole entry, the tested form may be a part): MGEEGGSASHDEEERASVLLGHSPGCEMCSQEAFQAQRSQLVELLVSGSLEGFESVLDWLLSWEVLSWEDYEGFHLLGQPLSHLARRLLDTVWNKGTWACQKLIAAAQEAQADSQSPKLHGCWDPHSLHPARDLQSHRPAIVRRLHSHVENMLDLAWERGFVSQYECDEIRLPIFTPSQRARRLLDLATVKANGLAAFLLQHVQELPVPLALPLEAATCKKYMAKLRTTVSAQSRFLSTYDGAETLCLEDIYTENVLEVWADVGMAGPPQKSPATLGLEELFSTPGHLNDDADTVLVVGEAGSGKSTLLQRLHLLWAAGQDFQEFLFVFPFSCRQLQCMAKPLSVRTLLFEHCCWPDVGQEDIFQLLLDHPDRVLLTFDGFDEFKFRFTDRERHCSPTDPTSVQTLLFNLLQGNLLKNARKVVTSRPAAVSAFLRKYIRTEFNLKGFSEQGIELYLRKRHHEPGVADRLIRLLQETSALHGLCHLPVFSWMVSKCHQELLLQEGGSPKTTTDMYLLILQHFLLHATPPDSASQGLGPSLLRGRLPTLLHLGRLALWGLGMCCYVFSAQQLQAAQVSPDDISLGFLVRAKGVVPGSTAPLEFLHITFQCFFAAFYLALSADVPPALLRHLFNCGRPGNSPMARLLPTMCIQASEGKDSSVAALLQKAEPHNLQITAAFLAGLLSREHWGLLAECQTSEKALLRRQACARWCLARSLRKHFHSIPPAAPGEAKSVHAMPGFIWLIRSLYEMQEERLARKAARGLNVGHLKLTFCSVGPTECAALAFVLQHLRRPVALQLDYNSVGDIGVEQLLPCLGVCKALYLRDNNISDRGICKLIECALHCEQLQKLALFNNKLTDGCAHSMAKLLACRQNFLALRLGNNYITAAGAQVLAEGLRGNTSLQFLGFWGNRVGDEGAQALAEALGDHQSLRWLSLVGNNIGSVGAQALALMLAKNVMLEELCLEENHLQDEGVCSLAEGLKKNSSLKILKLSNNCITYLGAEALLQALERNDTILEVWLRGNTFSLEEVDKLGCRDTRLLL
Test [6] relates to HEK293. The test can be described thus: cells. The class given is functional, cell-based. As to conditions: Homo sapiens. The source holds these as a separate data set.
In test [7] the test system is Vibrio harveyi. Nature of the test: LuxS/LuxPQ-dependent luminescence inhibition, V. harveyi – dry powder, set 2, dose response (AID 493072). Format: functional, organism-based.
Test [8] relates to Vibrio harveyi. The test can be described thus: Quorum Sensing, LuxS, LuxPQ Measured in Microorganism System Using Plate Reader - 2035-01_Inhibitor_DoseNoFile_DryPowder_Activity. [Related pubchem assays (depositor defined):AID2106]. The class given is functional, organism-based.
The target of test [9] is T1, Cannabinoid receptor 1 (Homo sapiens, UniProt P21554). Nature of the test: SAR analysis of agonists of the Cannabinoid Receptor 1 using an Image-Based Assay - Set 3. [Related pubchem assays (depositor defined):AID1961, AID1965]. The class given is functional.
T1 sequence (P21554 whole entry): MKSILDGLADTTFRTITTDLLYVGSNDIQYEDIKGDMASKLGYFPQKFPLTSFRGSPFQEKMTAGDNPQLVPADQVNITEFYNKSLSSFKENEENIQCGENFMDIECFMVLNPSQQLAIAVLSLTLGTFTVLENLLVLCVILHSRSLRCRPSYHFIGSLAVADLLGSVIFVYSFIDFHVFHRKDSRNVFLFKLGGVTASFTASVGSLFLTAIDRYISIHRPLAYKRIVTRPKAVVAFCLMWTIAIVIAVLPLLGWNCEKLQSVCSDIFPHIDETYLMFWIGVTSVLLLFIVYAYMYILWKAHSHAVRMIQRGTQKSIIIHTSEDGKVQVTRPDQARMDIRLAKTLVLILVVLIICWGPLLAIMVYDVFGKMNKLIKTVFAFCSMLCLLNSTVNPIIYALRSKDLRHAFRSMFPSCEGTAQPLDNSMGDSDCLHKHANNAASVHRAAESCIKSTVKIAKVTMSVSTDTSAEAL
For test [10], the target named is G-protein coupled receptor 55 (Homo sapiens, UniProt Q9Y2T6). The test can be described thus: SAR analysis of selective Agonists of GPR55 using an Image-Based Assay - Set 2. [Related pubchem assays (depositor defined):AID1961, AID1965]. Format: functional.
Sequence of G-protein coupled receptor 55 (Q9Y2T6 whole entry): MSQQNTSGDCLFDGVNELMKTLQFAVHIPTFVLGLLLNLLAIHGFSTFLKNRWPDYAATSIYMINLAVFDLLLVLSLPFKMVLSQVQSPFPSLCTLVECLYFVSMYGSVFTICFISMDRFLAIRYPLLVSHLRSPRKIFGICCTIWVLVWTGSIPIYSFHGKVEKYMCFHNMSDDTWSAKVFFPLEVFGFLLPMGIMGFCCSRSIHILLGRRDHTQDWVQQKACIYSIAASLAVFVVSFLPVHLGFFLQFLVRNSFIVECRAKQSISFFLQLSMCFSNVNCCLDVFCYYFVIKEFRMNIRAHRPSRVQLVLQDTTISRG
Test [11] has as its target T2, Cannabinoid receptor 2 (Homo sapiens, UniProt P34972). The test can be described thus: SAR analysis of agonists of the Cannabinoid Receptor 2 using an Image-Based Assay - Set 2. [Related pubchem assays (depositor defined):AID1961, AID1965]. The class given is functional.
In test [12] the target is T3, G-protein coupled receptor 35 (Homo sapiens, UniProt Q9HC97). Nature of the test: SAR analysis of Antagonists of the GPR35 Receptor using an Image-Based Assay - Set 4. [Related pubchem assays (depositor defined):[…]]. The class given is functional.
T3 sequence (Q9HC97 whole entry): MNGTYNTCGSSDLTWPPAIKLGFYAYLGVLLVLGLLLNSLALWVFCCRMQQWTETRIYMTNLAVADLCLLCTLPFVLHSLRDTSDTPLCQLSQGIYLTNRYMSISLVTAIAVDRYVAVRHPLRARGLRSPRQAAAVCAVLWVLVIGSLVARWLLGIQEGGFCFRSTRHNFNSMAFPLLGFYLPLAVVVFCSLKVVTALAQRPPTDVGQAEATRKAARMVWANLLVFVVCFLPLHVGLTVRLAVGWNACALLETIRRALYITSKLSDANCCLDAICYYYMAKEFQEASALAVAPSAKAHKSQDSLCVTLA
Test [13] concerns the target T1, Cannabinoid receptor 1. Nature of the test: SAR analysis of antagonists of the Cannabinoid Receptor 1 using an Image-Based Assay - Set 3. [Related pubchem assays (depositor defined):AID1961, AID1965]. Format: functional.
Test [14] addresses T2, Cannabinoid receptor 2. The test can be described thus: SAR analysis of antagonists of the Cannabinoid Receptor 2 using an Image-Based Assay - Set 2. [Related pubchem assays (depositor defined):AID1961, AID1965]. Format: functional.
For test [15], the target named is T3, G-protein coupled receptor 35. Nature of the test: SAR analysis of Agonists of the GPR35 Receptor using an Image-Based Assay - Set 3. [Related pubchem assays (depositor defined):AID1961, AID1965]. Format: functional.
Test [16] concerns the target T4, Kappa-type opioid receptor (Homo sapiens, UniProt P41145). Nature of the test: SAR analysis of Antagonists of the Kappa Opioid Receptor (KOR) using an Image-Based Assay - Set 4. [Related pubchem assays (depositor defined):AID1777, AID1785]. Format: functional.
The target of a further test is Mu-type opioid receptor (Homo sapiens, UniProt P35372). Nature of the test: SAR Analysis of Antagonists of the MOR Receptor using an Image-Based Assay - Set 3. [Related pubchem assays (depositor defined):AID1777, AID1785, AID1786, AID1966, AID2133, AID2136, AID2284, AID2285, AID2420]. The class given is functional.
Sequence of Mu-type opioid receptor (P35372 whole entry): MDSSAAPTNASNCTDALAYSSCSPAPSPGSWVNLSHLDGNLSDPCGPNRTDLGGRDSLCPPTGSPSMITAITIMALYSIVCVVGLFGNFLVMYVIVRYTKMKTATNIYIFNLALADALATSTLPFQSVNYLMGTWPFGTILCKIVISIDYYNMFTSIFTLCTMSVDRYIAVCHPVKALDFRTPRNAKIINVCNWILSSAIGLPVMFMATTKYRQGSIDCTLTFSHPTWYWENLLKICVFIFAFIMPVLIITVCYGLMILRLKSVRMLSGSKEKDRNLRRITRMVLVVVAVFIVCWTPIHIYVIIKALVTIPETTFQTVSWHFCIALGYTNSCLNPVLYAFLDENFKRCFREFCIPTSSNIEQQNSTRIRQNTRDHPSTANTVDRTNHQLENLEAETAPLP
The target in test [17] is T4, Kappa-type opioid receptor. Nature of the test: SAR analysis of small molecule antagonists of the kappa opioid receptor via a luminescent beta-arrestin assay - Set 3. [Related pubchem assays (depositor defined):AID1777, AID1778, AID1785, AID1786, AID1966, AID2133, AID2136, AID2285, AID2495]. Format: functional.
Test [18] deals with Delta-type opioid receptor (Homo sapiens, UniProt P41143). The test can be described thus: SAR Analysis of Antagonists of the DOR Receptor using an Image-Based Assay - Set 3. [Related pubchem assays (depositor defined):AID1777, AID1785]. The class given is functional.
Sequence of Delta-type opioid receptor (P41143 whole entry): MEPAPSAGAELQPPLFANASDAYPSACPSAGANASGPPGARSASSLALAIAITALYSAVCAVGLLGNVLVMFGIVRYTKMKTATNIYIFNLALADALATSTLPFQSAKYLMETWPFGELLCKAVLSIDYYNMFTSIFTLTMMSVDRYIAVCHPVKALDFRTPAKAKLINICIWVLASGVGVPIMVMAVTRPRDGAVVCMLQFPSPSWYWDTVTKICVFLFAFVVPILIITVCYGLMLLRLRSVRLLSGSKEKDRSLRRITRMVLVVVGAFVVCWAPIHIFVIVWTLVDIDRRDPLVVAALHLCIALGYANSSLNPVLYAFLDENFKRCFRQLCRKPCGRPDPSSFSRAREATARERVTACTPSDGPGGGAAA
The target of test [19] is Dual specificity protein phosphatase 3 (Homo sapiens, UniProt P51452). The test can be described thus: SAR VHR1 Fluorescent Assay for In Vitro dose response studies Set 2. [Related pubchem assays (depositor defined):AID1654, AID1661, AID1878]. The class given is functional.
Sequence of Dual specificity protein phosphatase 3 (P51452 whole entry): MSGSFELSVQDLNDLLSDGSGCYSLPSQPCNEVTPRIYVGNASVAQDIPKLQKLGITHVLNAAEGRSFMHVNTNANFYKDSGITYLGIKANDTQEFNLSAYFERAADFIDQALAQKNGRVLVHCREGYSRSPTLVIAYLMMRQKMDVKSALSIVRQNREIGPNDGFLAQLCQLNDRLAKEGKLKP
Test [20] addresses T5, Tyrosine-protein phosphatase non-receptor type 7 (Homo sapiens, UniProt P35236).
T5 sequence (P35236 whole entry): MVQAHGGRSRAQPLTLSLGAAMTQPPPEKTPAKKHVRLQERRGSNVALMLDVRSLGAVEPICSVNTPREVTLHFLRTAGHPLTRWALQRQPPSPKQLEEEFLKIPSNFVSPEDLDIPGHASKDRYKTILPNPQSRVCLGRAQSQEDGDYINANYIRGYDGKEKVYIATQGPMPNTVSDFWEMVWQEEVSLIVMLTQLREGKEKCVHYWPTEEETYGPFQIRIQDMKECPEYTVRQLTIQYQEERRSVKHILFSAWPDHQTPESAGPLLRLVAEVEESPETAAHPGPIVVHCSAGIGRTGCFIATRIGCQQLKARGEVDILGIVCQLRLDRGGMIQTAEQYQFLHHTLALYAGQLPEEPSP
Nature of the test: SAR analysis of chemical inhibitors of HePTP using a Fluorescent assay - Set 2. [Related pubchem assays (depositor defined):AID1059, AID1077, AID1661, AID2085, AID521]. Format: functional.

The next test addresses Integrin alpha-L (Mus musculus, UniProt P24063). The test can be described thus: modulators of CD8 T cell-vesicle binding, dose response, powder samples, mouse 2C CD8+ cells (AID 504565). Format: functional.
The nature of test [21]: cells. Format: functional, cell-based.
A further test has as its system T-cell. The test can be described thus: loss of vesicle association with mouse CD8+ T cells – mouse 2C CD8+ T cells, flow cytometry, dose response (AID 485284). The class given is functional. Background: In flow cytometry, cells or beads pass a laser one at a time.
Test [22] in a line: cells. The class given is functional, cell-based. The source holds these as a separate data set.

T2 sequence (P34972 whole entry): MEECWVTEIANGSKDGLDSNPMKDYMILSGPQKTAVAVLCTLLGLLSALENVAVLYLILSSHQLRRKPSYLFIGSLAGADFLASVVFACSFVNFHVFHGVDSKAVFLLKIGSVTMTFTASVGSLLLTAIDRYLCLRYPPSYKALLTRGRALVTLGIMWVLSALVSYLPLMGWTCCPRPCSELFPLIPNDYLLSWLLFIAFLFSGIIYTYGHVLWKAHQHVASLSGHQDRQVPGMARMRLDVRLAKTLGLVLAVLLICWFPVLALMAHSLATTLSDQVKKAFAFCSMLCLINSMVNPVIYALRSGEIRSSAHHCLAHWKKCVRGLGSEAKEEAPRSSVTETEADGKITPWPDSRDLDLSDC
T4 sequence (P41145 whole entry): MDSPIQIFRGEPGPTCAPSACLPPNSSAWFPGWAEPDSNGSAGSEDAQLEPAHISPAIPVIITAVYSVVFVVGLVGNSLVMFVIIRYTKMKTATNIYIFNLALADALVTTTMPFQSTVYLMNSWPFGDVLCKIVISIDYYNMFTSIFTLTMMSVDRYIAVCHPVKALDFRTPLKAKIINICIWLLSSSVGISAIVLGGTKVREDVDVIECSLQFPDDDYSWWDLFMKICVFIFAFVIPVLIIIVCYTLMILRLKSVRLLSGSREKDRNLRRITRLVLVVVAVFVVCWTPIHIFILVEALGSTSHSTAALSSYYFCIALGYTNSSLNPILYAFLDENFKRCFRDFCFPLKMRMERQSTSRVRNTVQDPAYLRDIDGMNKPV
Sequence of Integrin alpha-L (P24063 whole entry): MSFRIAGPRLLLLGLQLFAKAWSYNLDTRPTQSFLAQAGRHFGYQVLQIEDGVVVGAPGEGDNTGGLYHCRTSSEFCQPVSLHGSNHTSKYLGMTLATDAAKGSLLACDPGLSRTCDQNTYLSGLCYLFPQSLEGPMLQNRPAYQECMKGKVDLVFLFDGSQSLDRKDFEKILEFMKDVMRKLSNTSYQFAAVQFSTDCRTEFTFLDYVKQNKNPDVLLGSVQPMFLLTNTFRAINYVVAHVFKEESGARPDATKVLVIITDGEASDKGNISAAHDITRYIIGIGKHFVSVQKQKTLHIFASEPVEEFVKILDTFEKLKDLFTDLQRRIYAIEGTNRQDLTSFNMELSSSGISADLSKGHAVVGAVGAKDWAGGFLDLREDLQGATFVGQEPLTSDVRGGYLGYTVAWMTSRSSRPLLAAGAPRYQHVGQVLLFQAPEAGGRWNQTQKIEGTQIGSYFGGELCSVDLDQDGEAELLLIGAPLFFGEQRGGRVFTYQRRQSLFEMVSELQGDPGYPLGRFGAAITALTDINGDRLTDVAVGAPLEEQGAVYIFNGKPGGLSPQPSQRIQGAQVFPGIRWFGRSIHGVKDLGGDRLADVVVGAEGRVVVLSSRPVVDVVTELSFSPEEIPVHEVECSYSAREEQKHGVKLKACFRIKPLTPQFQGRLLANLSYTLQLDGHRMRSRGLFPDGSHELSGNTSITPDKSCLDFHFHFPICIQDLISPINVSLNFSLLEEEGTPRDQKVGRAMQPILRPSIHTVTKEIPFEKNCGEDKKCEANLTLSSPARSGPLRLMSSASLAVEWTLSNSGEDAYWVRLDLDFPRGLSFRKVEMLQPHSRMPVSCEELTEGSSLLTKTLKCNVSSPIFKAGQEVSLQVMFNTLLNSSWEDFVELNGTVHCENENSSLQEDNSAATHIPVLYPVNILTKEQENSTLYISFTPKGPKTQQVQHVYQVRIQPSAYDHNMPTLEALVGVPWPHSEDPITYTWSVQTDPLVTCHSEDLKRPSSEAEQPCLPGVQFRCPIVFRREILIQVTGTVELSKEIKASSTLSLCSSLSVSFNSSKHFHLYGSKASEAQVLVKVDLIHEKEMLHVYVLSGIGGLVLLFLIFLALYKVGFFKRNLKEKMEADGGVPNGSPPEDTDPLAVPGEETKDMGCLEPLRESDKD

As for `Cc1c(C(=O)N2CCN(c3ccc(F)cc3)CC2)sc2ncnc(N3CCN(c4ccccn4)CC3)c12`, the IC50 in the test on HEK293 [1] was 7.42 µM (inactive); in the test on HEK293 [2] it was 11.9 µM (active); in the test with HEK293 [4] it was 16.8 µM (active); in the test on HEK293 [6], 4.81 µM (active). Further, the EC50 was 5.71 µM (active) with HEK293 [3] and 4.24 µM (active) in [5].
Turning to `CCc1ccc(S(=O)(=O)Nc2ccc(Br)cn2)cc1`, the results for the AC50 in the test with Vibrio harveyi [7] and in the test with Vibrio harveyi [8] were 8.16 µM (active) and 3.22 µM (active), respectively.
As for `CN(C)S(=O)(=O)c1ccc(N2CCCC2)c(C(=O)N2CCN(c3cccc(Cl)c3)CC2)c1`, the EC50 is > 32 µM (inactive) at Cannabinoid receptor 1 [9], 0.608 µM (active) in test [10], > 32 µM (inactive) at Cannabinoid receptor 2 [11] and > 32 µM (inactive) in [15]. In addition, the IC50 in test [12] is > 32 µM (inactive); on Cannabinoid receptor 1 [13], 27.1 µM (inactive); on Cannabinoid receptor 2 [14], > 32 µM (inactive).
Consider `COc1ccc(N2CCN(CCCNC(=O)Cn3c(=O)c4cccn4c4cccnc43)CC2)c(OC)c1`, for which the IC50 was 0.49 µM (active) in test [16], 10.8 µM (inactive) on Mu-type opioid receptor, 2.65 µM (active) in test [17] and > 32 µM (inactive) in [18].
As for `Fc1ccc(CNC(=S)c2ccc(Br)cc2)cc1C(F)(F)F`, the IC50 in test [19] was 19.3 µM (active); in test [20], 23.4 µM (active).
Regarding `CCOCC(=O)Nc1ccc(S(=O)(=O)N2CCC(c3nc4ccccc4[nH]3)CC2)cc1`, the EC50 on Integrin alpha-L is 0.246 µM (active); in the test “cells [21]”, > 350 µM (not active); with T-cell it was 1.37 µM (active); in “cells [22]” it was > 350 µM (not active).
